The text below walks through data of patent publication US7465741B2, “C-substituted tricyclic isoxazoline derivatives and their use as anti-depressants” (Janssen Pharmaceutica N.V., priority 2002, dated 2008).

The target of one assay is T1, hα2C receptor (Homo sapiens, UniProt P18825).
T1 construct: expressed in transfected cells; host or cells: CHO cells
T1 sequence (P18825 1-462): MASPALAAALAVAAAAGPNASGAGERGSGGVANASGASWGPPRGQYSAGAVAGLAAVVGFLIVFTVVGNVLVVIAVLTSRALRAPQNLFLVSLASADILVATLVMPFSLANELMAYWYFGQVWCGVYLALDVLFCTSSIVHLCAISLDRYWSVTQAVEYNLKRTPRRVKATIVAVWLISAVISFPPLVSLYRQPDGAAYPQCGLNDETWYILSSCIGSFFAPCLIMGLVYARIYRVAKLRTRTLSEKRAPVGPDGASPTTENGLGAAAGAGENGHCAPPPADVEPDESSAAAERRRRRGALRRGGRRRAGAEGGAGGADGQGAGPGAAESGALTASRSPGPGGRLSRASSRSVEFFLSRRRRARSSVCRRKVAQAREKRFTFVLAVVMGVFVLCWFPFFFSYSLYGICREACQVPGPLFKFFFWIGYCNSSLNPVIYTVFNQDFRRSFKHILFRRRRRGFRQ
As to the kind of experiment: Radioligand binding experiment for hα2C receptor ([3H]-raulwolscine, CHO cell membranes). As to conditions: [3H]-raulwolscine 1 nM, membranes of CHO cells transfected with human α2C receptor; read-out: pIC50 hα2C (converted). The procedure: (§1) The interaction of the compounds according to Formula (I) with hα2-receptors and h5-HT-transporters was assessed in in vitro radioligand binding experiments. In general, a low concentration of a radioligand with a high binding affinity for a particular receptor or transporter is incubated with a sample of a tissue preparation enriched in a particular receptor or transporter or with a preparation of cells expressing cloned human receptors in a buffered medium. During the incubation, the radioligand binds to the receptor or transporter. When equilibrium of binding is reached, the receptor bound radioactivity is separated from the non-bound radioactivity, and the receptor- or transporter-bound activity is counted. The interaction of the test compounds with the receptor is assessed in competition binding experiments. Various concentrations of the test compound are added to the incubation mixture containing the receptor- or transporter preparation and the radioligand. The test compound in proportion to its binding affinity and its concentration inhibits binding of the radioligand. The radioligand used for hα2A, hα2B and hα2C receptor binding was [^3H]-raulwolscine and for the h5-HT transporter was [^3H]paroxetine.
(§2) CHO cells, stabile transfected with human adrenergic-α2A-, —α2B or α2C receptor cDNA, were cultured in Dulbecco's Modified Eagle's Medium (DMEM)/Nutrient mixture Ham's F12 (ratio 1:1)(Gibco, Gent-Belgium) supplemented with 10% heat inactivated fetal calf serum (Life Technologies, Merelbeke-Belgium) and antibiotics (100 IU/ml penicillin G, 100 μg/ml streptomycin sulphate, 110 μg/ml pyruvic acid and 100 μg/ml L-glutamine). One day before collection, cells were induced with 5 mM sodiumbutyrate. Upon 80-90% of confluence, cells were scraped in phosphate buffered saline without Ca^2+ and Mg^2+ and collected by centrifugation at 1500×g for 10 min. The cells were homogenised in Tris-HCl 50 mM using an Ultraturrax homogenizer and centrifuged for 10 min at 23,500×g. The pellet was washed once by resuspension and rehomogenization and the final pellet was resuspended in Tris-HCl, divided in 1 ml aliquots and stored at −70° C.
(§3) Membranes were thawed and re-homogenized in incubation buffer (glycylglycine 25 mM, pH 8.0). In a total volume of 500 μl, 2-10 μg protein was incubated with [^3H]raulwolscine (NET-722) (New England Nuclear, USA) (1 nM final concentration) with or without competitor for 60 min at 25° C. followed by rapid filtration over GF/B filter using a Filtermate196 harvester (Packard, Meriden, Conn.). Filters were rinsed extensively with ice-cold rinsing buffer (Tris-HCl 50 mM pH 7.4). Filter-bound radioactivity was determined by scintillation counting in a Topcount (Packard, Meriden, Conn.) and results were expressed as counts per minute (cpm). Non-specific binding was determined in the presence of 1 μM oxymetazoline for hα2A- and hα2B receptors and 1 μM spiroxatrine for hα2C receptors.
(§4) Data from assays in the presence of compound were calculated as a percentage of total binding measured in the absence of test compound. Inhibition curves, plotting percent of total binding versus the log value of the concentration of the test compound, were automatically generated, and sigmoidal inhibition curves were fitted using non-linear regression. The pIC50 values of test compounds were derived from individual curves.

The target in a further assay is T2, h5-HT transporter (Homo sapiens, UniProt P31645).
T2 construct: Human platelet membranes (Oceanix Biosciences Corporation, Hanover, Md., USA) were thawed; tissue Oceanix Biosciences Corporation; host or cells: human platelet membranes
As to the kind of experiment: Radioligand binding experiment for 5-HT transporter ([3H]paroxetine, human platelet membranes). As to conditions: [3H]paroxetine 0.5 nM, read-out: pIC50 h5HTT (converted). The procedure: as §1
Human platelet membranes (Oceanix Biosciences Corporation, Hanover, Md., USA) were thawed, diluted in buffer (Tris-HCl 50 mM, 120 mM NaCl and 5 mM KCl) and quickly (max 3 s) homogenised with an Ultraturrax homogenizer. In a total volume of 250 μL, 50-100 μg protein was incubated with [^3H]paroxetine (NET-869) (New England Nuclear, USA) (0.5 nM final concentration) with or without competitor for 60 min at 25° C. Incubation was stopped by rapid filtration of the incubation mixture over GF/B filters, pre-wetted with 0.1% polyethyleneamine, using a Filtermate 196 harvester (Packard, Meriden, Conn.). Filters were rinsed extensively with ice-cold buffer and radioactivity on the filters was counted in a Topcount liquid scintillation counter (Packard, Meriden, Conn.). Data were expressed as cpm. Imipramine (at 1 μM final concentration) was used to determine the non-specific binding.
as §4

A further assay addresses T3, hα2A receptor (Homo sapiens, UniProt P08913).
T3 construct: expressed in transfected cells; host or cells: CHO cells
T3 sequence (P08913 1-465): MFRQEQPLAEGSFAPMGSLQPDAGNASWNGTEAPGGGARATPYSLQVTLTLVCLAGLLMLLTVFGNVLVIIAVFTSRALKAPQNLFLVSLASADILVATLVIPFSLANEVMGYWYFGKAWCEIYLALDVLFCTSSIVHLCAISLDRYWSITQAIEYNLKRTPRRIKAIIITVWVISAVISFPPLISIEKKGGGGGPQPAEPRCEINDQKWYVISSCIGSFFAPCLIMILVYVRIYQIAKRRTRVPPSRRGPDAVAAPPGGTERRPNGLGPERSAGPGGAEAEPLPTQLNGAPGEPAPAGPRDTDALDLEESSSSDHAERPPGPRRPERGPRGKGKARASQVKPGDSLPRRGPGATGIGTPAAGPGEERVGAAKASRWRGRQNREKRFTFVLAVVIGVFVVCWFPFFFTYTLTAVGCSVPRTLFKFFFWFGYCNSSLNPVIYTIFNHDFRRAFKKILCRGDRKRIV
Kind of assay: Radioligand binding experiment for hα2A receptor ([3H]-raulwolscine, CHO cell membranes). As to conditions: [3H]-raulwolscine 1 nM, membranes of CHO cells transfected with human α2A receptor; read-out: pIC50 hα2A (converted). The procedure: as §1, §2, §3, §4

Another assay deals with T4, hα2B receptor (Homo sapiens, UniProt P18089).
T4 construct: expressed in transfected cells; host or cells: CHO cells
T4 sequence (P18089 1-450): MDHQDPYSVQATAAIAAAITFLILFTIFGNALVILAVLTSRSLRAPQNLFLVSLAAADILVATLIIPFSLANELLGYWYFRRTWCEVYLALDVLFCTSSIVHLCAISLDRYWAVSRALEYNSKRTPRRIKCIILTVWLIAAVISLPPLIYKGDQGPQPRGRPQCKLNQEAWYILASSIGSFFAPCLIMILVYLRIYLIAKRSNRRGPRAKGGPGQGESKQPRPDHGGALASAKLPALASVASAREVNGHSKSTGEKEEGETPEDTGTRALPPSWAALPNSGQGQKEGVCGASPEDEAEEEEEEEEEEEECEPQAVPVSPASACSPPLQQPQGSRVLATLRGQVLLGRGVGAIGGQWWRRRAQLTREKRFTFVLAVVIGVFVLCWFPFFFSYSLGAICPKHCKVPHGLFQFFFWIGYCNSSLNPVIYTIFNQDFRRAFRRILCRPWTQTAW
As to the kind of experiment: Radioligand binding experiment for hα2B receptor ([3H]-raulwolscine, CHO cell membranes). As to conditions: [3H]-raulwolscine 1 nM, membranes of CHO cells transfected with human α2B receptor; read-out: pIC50 hα2B (converted). The procedure: as §1, §2, §3, §4

T2 sequence (P31645 whole entry): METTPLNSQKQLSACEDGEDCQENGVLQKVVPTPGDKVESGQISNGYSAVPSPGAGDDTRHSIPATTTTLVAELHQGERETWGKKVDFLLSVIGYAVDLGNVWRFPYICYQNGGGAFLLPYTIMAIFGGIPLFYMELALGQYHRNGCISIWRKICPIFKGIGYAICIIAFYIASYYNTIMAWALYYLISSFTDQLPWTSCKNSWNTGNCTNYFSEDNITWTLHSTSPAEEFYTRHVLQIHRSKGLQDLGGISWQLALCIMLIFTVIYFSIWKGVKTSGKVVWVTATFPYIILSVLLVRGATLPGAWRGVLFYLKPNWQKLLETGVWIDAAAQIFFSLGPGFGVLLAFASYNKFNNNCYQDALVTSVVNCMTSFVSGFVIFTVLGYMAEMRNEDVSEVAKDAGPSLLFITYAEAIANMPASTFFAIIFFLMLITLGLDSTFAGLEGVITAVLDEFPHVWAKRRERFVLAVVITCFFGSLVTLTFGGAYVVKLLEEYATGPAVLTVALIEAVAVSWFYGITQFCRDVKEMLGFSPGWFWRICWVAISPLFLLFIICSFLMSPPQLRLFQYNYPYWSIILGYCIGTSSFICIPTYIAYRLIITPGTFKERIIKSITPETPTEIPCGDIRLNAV

`Cc1ccc2c(c1)C1=NOC(CN3CCN(CC=Cc4ccccc4)CC3)C1CO2` (stereo not drawn) [Compound 1, 8-Methyl-3-[4-(3-phenyl-allyl)-piperazin-1-ylmethyl]-3a,4-dihydro-3H-chromeno[4,3-c]isoxazole]: the IC50 was 15.8 nM on hα2C receptor, 39.8 nM at h5-HT transporter, 3.98 nM at hα2A receptor and 10 nM at hα2B receptor.
As to `COc1cc2c(cc1C)OCC1C2=NOC1CN1CCN(C/C(C)=C/c2ccccc2)CC1` (stereo not drawn) [Compound 2, 8-Methoxy-7-methyl-3-[4-(2-methyl-3-phenyl-allyl)-piperazin-1-ylmethyl]-3a,4-dihydro-3H-chromeno[4,3-c]isoxazole], the IC50 is 1.58 nM at hα2C receptor, 20 nM on h5-HT transporter and 2 nM on hα2A receptor.
With `COc1cc2c(cc1CO)OCC1C2=NOC1CN1CCN(C/C(C)=C/c2ccccc2)CC1` (stereo not drawn) [Compound 4, {8-Methoxy-3-[4-(2-methyl-3-phenyl-allyl)-piperazin-1-ylmethyl]-3a,4-dihydro-3H-chromeno[4,3-c]isoxazol-7-yl}-methanol], the results for the IC50 on hα2C receptor, on h5-HT transporter and on hα2A receptor were 1.58 nM, 100 nM and 3.98 nM, respectively.
With `COCc1ccc2c(c1)OCC1C2=NOC1CN1CCN(CC(C)=Cc2ccccc2)CC1` (stereo not drawn) [Compound 5, 7-Methoxymethyl-3-[4-(2-methyl-3-phenyl-allyl)-piperazin-1-ylmethyl]-3a,4-dihydro-3H-chromeno[4,3-c]isoxazole], the IC50 at hα2C receptor was 0.794 nM; on h5-HT transporter it was 158 nM; at hα2A receptor, 3.16 nM; on hα2B receptor it was 2.51 nM.
`COc1cc2c(cc1COC(C)=O)OCC1C2=NOC1CN1CCN(C/C(C)=C/c2ccccc2)CC1` (stereo not drawn) [Compound 7, Acetic acid 8-methoxy-3-[4-(2-methyl-3-phenyl-allyl)-piperazin-1-ylmethyl]-3a,4-dihydro-3H-chromeno[4,3-c]isoxazol-7-ylmethyl ester]: the IC50 on hα2C receptor was 1.26 nM; on h5-HT transporter, 12.6 nM; on hα2A receptor, 3.98 nM.
For `COc1cc2c(cc1COc1ccccc1)OCC1C2=NOC1CN1CCN(C/C(C)=C/c2ccccc2)CC1` (stereo not drawn) [Compound 8, 8-Methoxy-3-[4-(2-methyl-3-phenyl-allyl)-piperazin-1-ylmethyl]-7-phenoxymethyl-3a,4-dihydro-3H-chromeno[4,3-c]isoxazole] the same measures were 20 nM, 200 nM and 25.1 nM.
For `C/C(=C\c1ccccc1)CN1CCN(CC2ON=C3c4ccc(/C=N\O)cc4OCC32)CC1` (stereo not drawn) [Compound 11, 3-[4-(2-Methyl-3-phenyl-allyl)-piperazin-1-ylmethyl]-3a,4-dihydro-3H -chromeno[4,3-c]isoxazole-7-carbaldehyde oxime] the same measures were 1.58 nM, 5.01 nM and 5.01 nM.
The like results for `CON=Cc1ccc2c(c1)OCC1C2=NOC1CN1CCN(CC(C)=Cc2ccccc2)CC1` (stereo not drawn) [Compound 12, 3-[4-(2-Methyl-3-phenyl-allyl)-piperazin-1-ylmethyl]-3a,4-dihydro-3H -chromeno[4,3-c]isoxazole-7-carbaldehyde O-methyl-oxime] were, in that order, 3.98 nM, 100 nM and 6.31 nM.
`CC(=O)NCc1ccc2c(c1)OCC1C2=NOC1CN1CCN(C/C(C)=C/c2ccccc2)CC1` (stereo not drawn) [Compound 15, N-{3-[4-(2-Methyl-3-phenyl-allyl)-piperazin-1-ylmethyl]-3a,4-dihydro-3H -chromeno[4,3-c]isoxazol-7-ylmethyl}-acetamide]: the values for the IC50 at hα2C receptor and on hα2A receptor were 0.794 nM and 5.01 nM, respectively.
Take `CCNC(=O)c1cc2c(cc1OC)C1=NOC(CN3CCN(C/C(C)=C/c4ccccc4)CC3)C1CO2` (stereo not drawn) [Compound 16, 8-Methoxy-3-[4-(2-methyl-3-phenyl-allyl)-piperazin-1-ylmethyl]-3a,4-dihydro-3H -chromeno[4,3-c]isoxazole-7-carboxylic acid ethylamide]: the IC50 at hα2C receptor was 1.58 nM; at h5-HT transporter, 126 nM; on hα2A receptor it was 3.16 nM.
`COc1cc2c(cc1-c1ccccc1)OCC1C2=NOC1CN1CCN(C/C(C)=C/c2ccccc2)CC1` (stereo not drawn) [Compound 17, 8-Methoxy-3-[4-(2-methyl-3-phenyl-allyl)-piperazin-1-ylmethyl]-7-phenyl-3a,4-dihydro-3H-chromeno[4,3-c]isoxazole]: the figures for the IC50 on hα2C receptor, at h5-HT transporter and on hα2A receptor were 12.6 nM, 158 nM and 15.8 nM, respectively.
Take `C/C(=C\c1ccccc1)CN1CCN(CC2ON=C3c4ccc(C=O)cc4OCC32)CC1` (stereo not drawn) [Compound 19]: the IC50 was 0.794 nM on hα2C receptor and 5.01 nM on hα2A receptor.
